Assay results reported in article PMC7253423, “Quassinoid analogs with enhanced efficacy for treatment of hematologic malignancies target the PI3Kγ isoform” (Communications Biology, 2020).
Values joined by “and” are separate entries in the source; they are usually repeats but may differ in a detail not shown here. Equal entries are not always repeated.

Legend:
[1] = Cytotoxicity, cell viability assay in normal cells; assay type: cell-based, human; conditions: human, PBMC, fraction of 0 μM control, read-out: relative cell viability (Fig 6a), replicates
PBMC = experiment: Cytotoxicity, cell viability assay in normal cells; assay type: cell-based, human; conditions: Fig 5c
Raji cells [2] = experiment: Western blot of PI3K/AKT signaling proteins; assay type: cell-based, human
Protocol: (§1) Western blot analyses were performed as previously described. Briefly, total cell lysates were separated by SDS-PAGE gel and transferred to nitrocellulose membrane. The membranes were blocked with 5% non-fat milk, probed with specific antibodies, and visualized using the Odyssey scanner (LiCor Inc., Lincoln, NE).

MOLM14 xenografts = experiment: In vivo tumorigenic assay using xenografts, tumor size; design: species or system NOD/SCID mice; conditions: for tumor size (Fig 5d&5e), individual mice: MOLM14 xenograft
Protocol: (§2) Six-week-old male NOD.CB17-Prkdc^scid/J (NOD/SCID) mice (Jackson Labs, Bar Harbor, ME, USA) were used as the human-in-mouse xeno-transplantation model. MOLM14 cells (1 × 10^7 cells) were injected into the subcutaneous space on the left flank of the mice. […] Body weight and tumor size were monitored before every injection. After treatment for 2 weeks, the mice were euthanized by CO2 inhalation and the tumors were carefully excised. The tumor volume (mm^3) was measured and calculated using the formula (a × b × b)/2 (a, the largest diameter of two measurements; b, the smallest diameter of two measurements).

[3] = tested on: hematologic malignancies derived cell lines; experiment: Cell viability assay, panel of hematologic malignancy derived cell lines; assay type: cell-based, human; conditions: 100 nM, 72 h, lymphoma, leukemia and multiple myeloma cell lines (13 cell lines for analogs)
Protocol: (§3) 5000 cells as indicated were cultured in 96-well plate with 100 μl of media. On the next day, Brusatol or associated analogs were added once to the cells without media change. After treatment, the cells were incubated with 100 μl buffer for 10 min at room temperature following the instructions of CellTiter-Glo kit (Promega, Madison, WI). Luminescence was detected using a multi-mode reader Cytation 5 (BioTek, Winooski, VT). […] Two independent experiments done in duplicates were performed.

Raji cells [4] = experiment: Cell viability assay (CellTiter-Glo luminescence); assay type: cell-based, human; conditions: for Cell viability (luminescence): duplicates
Protocol: as §3, with “On the next day, Brusatol or associated analogs were added once to the cells without media change.” left out

SU-DHL-4 cells [5] = experiment: Cell viability assay (CellTiter-Glo luminescence); assay type: cell-based, human
Protocol: as §3, with “On the next day, Brusatol or associated analogs were added once to the cells without media change.” left out

[6] = Body weight of xenograft mice; assay type: in vivo, NOD/SCID mice; conditions: individual mice, Fig S3i, in g (unit assumed)
Protocol: as §2

MOLM14 cells = experiment: Cell viability assay (CellTiter-Glo luminescence); assay type: cell-based; conditions: Homo sapiens
Protocol: as §3, with “On the next day, Brusatol or associated analogs were added once to the cells without media change.” left out

LCL1 cells = experiment: Western blot of PI3K/AKT signaling proteins; assay type: cell-based, human; conditions: LCL1, Fig. 2i
Protocol: as §1

K562 cells [7] = experiment: Western blot of PI3K/AKT signaling proteins; assay type: cell-based, human; conditions: K562, 0, 50 nM, 100 nM; 0, 12 h, 24 h
Protocol: as §1

K562 cells [8] = experiment: Cell cycle assay (PI staining, flow cytometry); assay type: cell-based, human; conditions: K562, 100 nM, 48 h
Protocol: (§4) Five million cells were harvested, fixed with 80% ethanol for 2 h or overnight at −20 °C, then washed with PBS and incubated with Propidium iodide (PI) staining buffer (0.5 mg/ml propidium iodide in PBS with 50 μg/ml RNase A) for 30 min at room temperature. The stained cells were resuspended in PBS and analyzed on a FACSCalibur system (Becton Dickinson, San Jose, CA, USA) using FlowJo software (TreeStar, San Carlos, CA, USA).

Raji cells [9] = experiment: Cell cycle assay (PI staining, flow cytometry); assay type: cell-based, human; conditions: 100 nM, 48 h
Protocol: as §4

SU-DHL-4 cells [10] = experiment: Cell cycle assay (PI staining, flow cytometry); assay type: cell-based, human; conditions: SU-DHL-4, 100 nM, 48 h
Protocol: as §4

HL-60 cells = experiment: Cell cycle assay (PI staining, flow cytometry); assay type: cell-based, human; conditions: HL-60, 100 nM, 48 h
Protocol: as §4

PI3Kγ = target: T1, PI3Kγ (Homo sapiens, UniProt P48736); experiment: Competitive binding pull-down assay in SU-DHL-4 cell lysates, western blot; conditions: SU-DHL-4 lysates, 51048 together with parent Brusatol
T1 construct: endogenous in cells; host or cells: SU-DHL-4 cells (lysate)
T1 sequence (P48736 whole entry): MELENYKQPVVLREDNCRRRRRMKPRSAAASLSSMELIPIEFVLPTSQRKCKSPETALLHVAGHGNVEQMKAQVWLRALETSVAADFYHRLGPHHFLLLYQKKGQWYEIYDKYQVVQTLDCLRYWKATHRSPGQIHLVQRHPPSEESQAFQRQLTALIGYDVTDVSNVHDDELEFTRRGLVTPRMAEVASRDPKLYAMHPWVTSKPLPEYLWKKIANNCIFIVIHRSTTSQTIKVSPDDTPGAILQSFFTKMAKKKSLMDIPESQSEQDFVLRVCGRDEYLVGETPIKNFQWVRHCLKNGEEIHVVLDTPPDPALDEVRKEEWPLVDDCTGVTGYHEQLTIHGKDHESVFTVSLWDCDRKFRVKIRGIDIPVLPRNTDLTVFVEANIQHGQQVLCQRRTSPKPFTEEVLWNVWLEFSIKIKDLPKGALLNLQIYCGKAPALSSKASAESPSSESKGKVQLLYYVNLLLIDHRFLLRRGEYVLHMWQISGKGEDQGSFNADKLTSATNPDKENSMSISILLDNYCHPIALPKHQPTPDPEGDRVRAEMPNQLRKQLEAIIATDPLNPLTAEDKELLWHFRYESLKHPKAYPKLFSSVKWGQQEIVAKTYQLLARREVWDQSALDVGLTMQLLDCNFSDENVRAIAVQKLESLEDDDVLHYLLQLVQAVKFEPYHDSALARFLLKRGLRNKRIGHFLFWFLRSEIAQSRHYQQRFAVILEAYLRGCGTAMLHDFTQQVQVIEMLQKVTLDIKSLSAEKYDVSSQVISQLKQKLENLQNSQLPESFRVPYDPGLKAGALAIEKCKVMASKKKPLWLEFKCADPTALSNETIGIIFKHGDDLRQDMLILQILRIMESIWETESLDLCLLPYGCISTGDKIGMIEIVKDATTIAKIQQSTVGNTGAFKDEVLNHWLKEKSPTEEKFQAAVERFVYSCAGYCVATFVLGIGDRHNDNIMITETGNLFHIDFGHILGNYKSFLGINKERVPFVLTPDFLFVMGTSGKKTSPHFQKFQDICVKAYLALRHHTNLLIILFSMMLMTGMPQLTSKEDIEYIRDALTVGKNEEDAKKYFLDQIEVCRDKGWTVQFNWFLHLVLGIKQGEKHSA
Protocol: Thirty microgram of purified GST-tagged proteins were pre-cleared with Dynabeads M-280 Streptavidin (Invitrogen, Carlsbad, CA, USA). […] The complexes were harvested and washed with PBS. The collected beads were mixed with SDS loading buffer for further analysis.
as §1

[11] = Raji, 0, 50 nM, 100 nM, 0, 12 h, 24 h

## COC(=O)C12OCC34C(CC5C(C)=C(OC(=O)CNC(=O)OC(C)(C)C)C(=O)CC5(C)C3C(O)C1O)OC(=O)C(OC(=O)C=C(C)C)C24 (centres unmarked) [#15]
[1]; Con. 0.000244141 μM
  viability at 0.000244141 μM: 104%
[1]; Con. 0.00390625 μM
  viability at 0.00390625 μM: 91.7%
[1]; Con. 0.015625 μM
  viability at 0.015625 μM: 76.5%
[1]; Con. 0.0625 μM
  viability at 0.0625 μM: 74.9%
[1]; Con. 1 μM
  viability at 1 μM: 61.2%
PBMC; Con. 0.01 μM
  Cell viability, raw luminescence reading: 24385 and 24514
PBMC; Con. 0.039 μM
  Cell viability, raw luminescence reading: 25686 and 22234
PBMC; Con. 0.156 μM
  Cell viability, raw luminescence reading: 6585 and 8242
PBMC; Con. 0.625 μM
  Cell viability, raw luminescence reading: 7188 and 7989
PBMC; Con. 10 μM
  Cell viability, raw luminescence reading: 9130 and 9273
Raji cells [2]; [11]
  suppression of AKT1, GSK3, and mTOR levels: largely similar to Brusatol
MOLM14 xenografts; 2 mg/kg intraperitoneally three times per week, 2 weeks, vs PBS control
  tumor size, inhibitory response: strong and rapid inhibitory response
MOLM14 xenografts; 0d
  tumor size (Fig 5d&5e), individual mice: 78.7304 and 93.4671 and 63.7324 and 75.8678 and 67.9005 and 67.4325
MOLM14 xenografts; 2d
  tumor size (Fig 5d&5e), individual mice: 74.0736 and 114.773 and 91.676 and 153.055 and 77.875 and 106.489
MOLM14 xenografts; 4d
  tumor size (Fig 5d&5e), individual mice: 75.6994 and 102.99 and 96.7244 and 124.841 and 62.8883 and 83.9808
MOLM14 xenografts; 6d
  tumor size (Fig 5d&5e), individual mice: 103.463 and 91.5117 and 52.853 and 252.562 and 146.711 and 106.359
MOLM14 xenografts; 8d
  tumor size (Fig 5d&5e), individual mice: 91.2302 and 210.386 and 191.93 and 161.391 and 92.482 and 87.983
MOLM14 xenografts; 10d
  tumor size (Fig 5d&5e), individual mice: 119.98 and 398.721 and 249.328 and 242.913 and 135.818 and 159.498
MOLM14 xenografts; 12d
  tumor size (Fig 5d&5e), individual mice: 236.553 and 558.264 and 472.199 and 496.746 and 222.458 and 242.483
[3]
  inhibition of cell viability in panel of cell lines: significantly inhibit
Raji cells [4]; Homo sapiens, 72 h
  IC50: 0.0929 µM
Raji cells [4]; Homo sapiens, read-out: relative cell viability (Fig 6f), replicates, Raji, Con. 0.00244141 μM, fraction of 0 μM control
  viability at 0.00244141 µM: 120%
Raji cells [4]; Homo sapiens, read-out: relative cell viability (Fig 6f), replicates, Raji, Con. 0.0390625 μM, fraction of 0 μM control
  viability at 0.0390625 µM: 63.6%
Raji cells [4]; Homo sapiens, read-out: relative cell viability (Fig 6f), replicates, Raji, Con. 0.15625 μM, fraction of 0 μM control
  viability at 0.15625 µM: 25.8%
Raji cells [4]; Homo sapiens, read-out: relative cell viability (Fig 6f), replicates, Raji, Con. 0.625 μM, fraction of 0 μM control
  viability at 0.625 µM: 10.3%
Raji cells [4]; Homo sapiens, read-out: relative cell viability (Fig 6f), replicates, Raji, Con. 10 μM, fraction of 0 μM control
  viability at 10 µM: 5.59%
SU-DHL-4 cells [5]; Homo sapiens, SU-DHL-4, 144 h, read-out: relative cell viability (Fig 6d), replicates, SU-DHL-4, Con. 0.00244141 μM, fraction of 0 μM control
  viability at 0.00244141 µM: 90.7%
SU-DHL-4 cells [5]; Homo sapiens, SU-DHL-4, 144 h, read-out: relative cell viability (Fig 6d), replicates, SU-DHL-4, Con. 0.0390625 μM, fraction of 0 μM control
  viability at 0.0390625 µM: 35.2%
SU-DHL-4 cells [5]; Homo sapiens, SU-DHL-4, 144 h, read-out: relative cell viability (Fig 6d), replicates, SU-DHL-4, Con. 0.15625 μM, fraction of 0 μM control
  viability at 0.15625 µM: 13.9%
SU-DHL-4 cells [5]; Homo sapiens, SU-DHL-4, 144 h, read-out: relative cell viability (Fig 6d), replicates, SU-DHL-4, Con. 0.625 μM, fraction of 0 μM control
  viability at 0.625 µM: 7.7%
SU-DHL-4 cells [5]; Homo sapiens, SU-DHL-4, 144 h, read-out: relative cell viability (Fig 6d), replicates, SU-DHL-4, Con. 10 μM, fraction of 0 μM control
  viability at 10 µM: 4.89%
[6]; 0d
  Body weight: 22.36 and 23.19 and 22.87 and 22.58 and 24.63
[6]; 2d
  Body weight: 23.14 and 23.83 and 23.95 and 23.84 and 24.63
[6]; 4d
  Body weight: 23.76 and 24.67 and 24.61 and 23.58 and 25.59
[6]; 6d
  Body weight: 23.47 and 24.61 and 23.88
[6]; 8d
  Body weight: 23.92 and 24.24 and 24.72 and 24.85 and 23.89 and 25.62
[6]; 10d
  Body weight: 24.4 and 25.19 and 24.12
[6]; 12d
  Body weight: 25.79 and 25.75 and 24.71 and 26.96
MOLM14 cells; MOLM-14, read-out: relative cell viability (Fig 6e), replicates, MOLM14, Con. 0.00244141 μM, fraction of 0 μM control
  viability at 0.00244141 µM: 71.1%
MOLM14 cells; MOLM-14, read-out: relative cell viability (Fig 6e), replicates, MOLM14, Con. 0.0390625 μM, fraction of 0 μM control
  viability at 0.0390625 µM: 15%
MOLM14 cells; MOLM-14, read-out: relative cell viability (Fig 6e), replicates, MOLM14, Con. 0.15625 μM, fraction of 0 μM control
  viability at 0.15625 µM: 5.59%
MOLM14 cells; MOLM-14, read-out: relative cell viability (Fig 6e), replicates, MOLM14, Con. 0.625 μM, fraction of 0 μM control
  viability at 0.625 µM: 3.26%
MOLM14 cells; MOLM-14, read-out: relative cell viability (Fig 6e), replicates, MOLM14, Con. 10 μM, fraction of 0 μM control
  viability at 10 µM: 3.59%

## Brusatol
LCL1 cells
  levels of AKT1 and GSK3 proteins: decreased
K562 cells [7]
  protein expression of AKT1, GSK3, and mTOR: minimally affected
Raji cells [2]; [11]
  protein expression of AKT1, GSK3, and mTOR: substantially reduced
Raji cells [2]; Raji, Fig. 2h
  levels of AKT1 and GSK3 proteins: decreased
K562 cells [8]
  Sub-G1 population: 3.19%
Raji cells [9]
  Sub-G1 population: 68.4%
SU-DHL-4 cells [10]
  Sub-G1 population: 67.9%
HL-60 cells
  Sub-G1 population: 7.63%
MOLM14 xenografts; 0d
  tumor size (Fig 5d&5e), individual mice: 79.6409 and 170.904 and 81.1118 and 93.0315 and 105.314 and 98.3496
MOLM14 xenografts; 2d
  tumor size (Fig 5d&5e), individual mice: 114.921 and 89.4339 and 85.1926 and 118.807 and 122.531 and 72.1684
MOLM14 xenografts; 4d
  tumor size (Fig 5d&5e), individual mice: 71.6608 and 87.7482 and 91.4458 and 96.2719 and 66.2604 and 63.9219
MOLM14 xenografts; 6d
  tumor size (Fig 5d&5e), individual mice: 86.9292 and 188.062 and 142.989 and 148.569 and 65.5816 and 390.002
MOLM14 xenografts; 8d
  tumor size (Fig 5d&5e), individual mice: 191.246 and 199.336 and 280.113 and 250.93 and 138.38 and 152.733
MOLM14 xenografts; 10d
  tumor size (Fig 5d&5e), individual mice: 255.462 and 401.539 and 386.529 and 187.744 and 278.266
MOLM14 xenografts; 12d
  tumor size (Fig 5d&5e), individual mice: 394.032 and 649.634 and 755.109 and 281.476 and 493.005
[3]
  inhibition of cell viability in panel of cell lines: broad and potent inhibitory effects
Raji cells [4]; 100 nM, 48 h post-treatment
  inhibition of viability (cells inhibited): more than 80%
Raji cells [4]; cell number 0, 100 nM, 72 h
  Cell viability (luminescence): 0.9927 and 1.007
Raji cells [4]; cell number 625, 100 nM, 72 h
  Cell viability (luminescence): 3.94 and 4.0527
Raji cells [4]; cell number 1250, 100 nM, 72 h
  Cell viability (luminescence): 7.303 and 7.093
Raji cells [4]; cell number 2500, 100 nM, 72 h
  Cell viability (luminescence): 8.911 and 8.321
Raji cells [4]; cell number 5000, 100 nM, 72 h
  Cell viability (luminescence): 13.6562 and 12.7698
Raji cells [4]; cell number 10000, 100 nM, 72 h
  Cell viability (luminescence): 11.8436 and 13.905
SU-DHL-4 cells [5]; SU-DHL-4, 100 nM, 48 h post-treatment
  inhibition of viability (cells inhibited): more than 80%
PI3Kγ
  binding of 51048 with PI3Kγ in the presence of competitor: reduced
